The values that follow come from PMC11341359, “Assessing the immunogenicity risk of salmon calcitonin peptide impurities using in silico and in vitro methods” (Frontiers in Pharmacology, 2024).

As a reminder, the IC50 is the concentration that inhibits the measured activity by half.

Test in all cases: Class II HLA competition binding assay
The target in one assay is T1, HLA DRB1*0101 (Homo sapiens, UniProt P01903+P01911, A100R/D57E/F55L/F60I/F76Y/I96L/L162R/M171V/P40L/Q125E/R42F/V115G/Y59C).
T1 construct: incubated overnight to equilibrium with a soluble HLA DR molecule; purchased Benaroya Research Institute, Seattle, Washington
As to conditions: short assay peptides (Cys7 replaced with Ser), competition with biotinylated allele-specific peptide, soluble HLA DR, overnight, time-resolved fluorescence, triplicate, seven concentrations; for IC50: unit inferred. The method, then: (§1) The class II HLA binding assays performed for these studies measure the binding affinity of a target peptide to HLA DRB1*0101, *0301, *0401, *0701, *0901, *1101, *1301, and *1501 in a standardized competition assay. This assay was originally described by [Steere et al. (2006)] and adapted by EpiVax. Previous publications have described the assay in detail ([McMurry et al., 2007]; [Ardito et al., 2011]). Briefly, unlabeled test peptides are incubated overnight to equilibrium with a soluble HLA DR molecule (Benaroya Research Institute, Seattle, Washington) and a biotinylated, allele-specific competitor peptide. The binding reaction is then neutralized, and peptide–HLA complexes are transferred to a 96-well plate coated with the pan-HLA DR antibody, clone L243 (BioLegend), and incubated overnight. The following day, Europium-labeled streptavidin (PerkinElmer, Waltham, MA) is added to identify the peptide–HLA complexes. An indirect measure of binding is determined by time-resolved fluorescence. Each peptide–HLA binding reaction is evaluated in triplicate over a range of seven concentrations. The percent inhibition values at seven distinct concentrations are used to calculate the IC50 value, defined as the concentration at which the test peptide inhibits 50% of the labeled competitor peptide.
(§2) Peptides that bind to the HLA at an IC50 value of 100 nM or less are considered very high-affinity binders. Peptides that bind at IC50 values ranging from 100 nM to 1,000 nM are considered high-affinity binders. Peptides that bind at IC50 values ranging from 1,000 nM to 10,000 nM are considered moderate-affinity binders. Peptides that bind at IC50 values ranging from 10,000 nM to 100,000 nM are considered low-affinity binders, and those with IC50 values ranging from 100,000 nM to 1,000,000 nM are considered negligible-affinity binders. […] We note that these concentrations are specific for the in vitro HLA-binding assay and are used to compare the relative binding affinities of the impurity sequences to the API and independent from the peptide concentrations described for the in vitro T-cell assays described below.

The next assay deals with T2, HLA DRB1*0301 (Homo sapiens, UniProt P01903+P01911, A100K/A102G/A103R/A169T/F55Y/I96L/K41T/L162R/M171V/P40S/Q125H/Q178H/Q39Y/R42S/S66N/T106N/T262R/W38E/Y61H).
T2 construct: incubated overnight to equilibrium with a soluble HLA DR molecule; purchased Benaroya Research Institute, Seattle, Washington
As to conditions: short assay peptides (Cys7 replaced with Ser), competition with biotinylated allele-specific peptide, soluble HLA DR, overnight, time-resolved fluorescence, triplicate, seven concentrations; for IC50: unit inferred; for IC50, HLA DRB1*0301: unit not given. The method, then:
as §1, §2

Another assay concerns the target T3, HLA DRB1*0401 (Homo sapiens, UniProt P01903+P01911, A100K/A169T/F76Y/I96L/K127E/L162R/M171V/N62H/P40V/Q125Y/R42H/S133A/S149N/S66Y/V115G/V209L/W38E).
T3 construct: incubated overnight to equilibrium with a soluble HLA DR molecule; purchased Benaroya Research Institute, Seattle, Washington
As to conditions: short assay peptides (Cys7 replaced with Ser); competition with biotinylated allele-specific peptide, soluble HLA DR, overnight, time-resolved fluorescence, triplicate, seven concentrations. As for the experimental part:
as §1, §2

Another assay addresses HLA DRB1*0701 (Homo sapiens, UniProt P01903+P01911, A100R/A102G/A103Q/D57E/D86V/E43K/F76Y/K127E/L162R/M171V/P40G/Q125H/Q99D/R33Q/R42Y/R54Q/S133A/S66F/T210M/V115G/Y107V/Y59L/Y89S). As to conditions: short assay peptides (Cys7 replaced with Ser); competition with biotinylated allele-specific peptide, soluble HLA DR, overnight, time-resolved fluorescence, triplicate, seven concentrations. As for the experimental part: as §1, §2

The next assay has as its target HLA DRB1*0901 (Homo sapiens, UniProt P01903+P01911, A100R/A103E/D57H/D86V/F55Y/F60I/F76Y/I96F/K127E/L162R/M171V/P40D/Q125H/Q99R/R33Q/R42F/S133A/S66N/T210M/V115G/W38K/Y107V/Y59G/Y89S). As to conditions: short assay peptides (Cys7 replaced with Ser); competition with biotinylated allele-specific peptide, soluble HLA DR, overnight, time-resolved fluorescence, triplicate, seven concentrations. The method, then:
as §1, §2

Another assay addresses T4, HLA DRB1*1101 (Homo sapiens, UniProt P01903+P01911, A100R/A169T/A87E/I96F/K41T/L162R/M171V/P40S/Q125H/Q178H/Q39Y/Q99D/R42S/S66Y/T262R/V115G/W38E).
T4 construct: incubated overnight to equilibrium with a soluble HLA DR molecule; purchased Benaroya Research Institute, Seattle, Washington
As to conditions: for IC50: short assay peptides (Cys7 replaced with Ser), competition with biotinylated allele-specific peptide, soluble HLA DR, overnight, time-resolved fluorescence, triplicate, seven concentrations, unit inferred. The method, then: as §1, §2

The next assay concerns the target T5, HLA DRB1*1301 (Homo sapiens, UniProt P01903+P01911, A100E/A169T/K41T/L162R/M171V/P40S/Q125H/Q178H/Q39Y/Q99D/R42S/S66N/T262R/W38E/Y61H).
T5 construct: incubated overnight to equilibrium with a soluble HLA DR molecule; purchased Benaroya Research Institute, Seattle, Washington
As to conditions: short assay peptides (Cys7 replaced with Ser), competition with biotinylated allele-specific peptide, soluble HLA DR, overnight, time-resolved fluorescence, triplicate, seven concentrations; for IC50: unit inferred. As for the experimental part: as §1, §2

The target in a further assay is T6, HLA DRB1*1501 (Homo sapiens, UniProt P01903+P01911).
T6 construct: incubated overnight to equilibrium with a soluble HLA DR molecule; purchased Benaroya Research Institute, Seattle, Washington
As to conditions: for IC50: short assay peptides (Cys7 replaced with Ser), competition with biotinylated allele-specific peptide, soluble HLA DR, overnight, time-resolved fluorescence, triplicate, seven concentrations, unit inferred. As for the experimental part:
as §1, §2

Where [1] appears, read: class by IC50, short assay peptides.

Peptide text beside a SMILES is read from it.

Regarding `CC(C)C[C@H](NC(=O)[C@H](CCCCN)NC(=O)CNC(=O)[C@H](CC(C)C)NC(=O)[C@@H](NC(=O)[C@H](CO)NC(=O)[C@@H](NC(=O)[C@@H](N)CO)[C@@H](C)O)C(C)C)C(=O)N[C@@H](CO)C(=O)N[C@@H](CCC(N)=O)C(=O)N[C@@H](CCC(=O)O)C(=O)N[C@@H](CC(C)C)C(=O)N[C@@H](Cc1c[nH]cn1)C(=O)N[C@@H](CCCCN)C(=O)N[C@@H](CC(C)C)C(=O)N[C@@H](CCC(N)=O)C(=O)N[C@H](C(=O)N[C@@H](Cc1ccc(O)cc1)C(=O)O)[C@@H](C)O` [API SCT(5-22)] (H-STSVLGKLSQELHKLQTY-OH), the IC50 at HLA DRB1*0101 is 11.1 µM; at HLA DRB1*0301, greater than 1000 µM; on HLA DRB1*0401, greater than 1000 µM; on HLA DRB1*0701, greater than 1000 µM; at HLA DRB1*0901, greater than 1000 µM; at HLA DRB1*1101, 105 µM. For the same compound, the IC50 was greater than 1000 µM on HLA DRB1*1301 and 95.9 µM on HLA DRB1*1501.

Consider `CC(C)C[C@H](NC(=O)[C@H](CCC(=O)O)NC(=O)[C@H](CCC(N)=O)NC(=O)[C@@H](N)CO)C(=O)N[C@@H](Cc1c[nH]cn1)C(=O)N[C@@H](CCCCN)C(=O)N[C@@H](CC(C)C)C(=O)N[C@@H](CCC(N)=O)C(=O)N[C@H](C(=O)N[C@@H](Cc1ccc(O)cc1)C(=O)N1CCC[C@H]1C(=O)N[C@@H](CCCNC(=N)N)C(=O)N[C@H](C(=O)N[C@@H](CC(N)=O)C(=O)N[C@H](C(=O)O)[C@@H](C)O)[C@@H](C)O)[C@@H](C)O` [API SCT(13-27)] (H-SQELHKLQTYPRTNT-OH), for which the IC50 on HLA DRB1*0101 is 3.35 µM; on HLA DRB1*0301, 66.4 µM; on HLA DRB1*0401, greater than 1000 µM; at HLA DRB1*0701, greater than 1000 µM; at HLA DRB1*0901, greater than 1000 µM; on HLA DRB1*1101 it was 161 µM. Besides, the results for the IC50 on HLA DRB1*1301 and on HLA DRB1*1501 were 8.72 µM and 2.29 µM, respectively.

Turning to `CC(C)C[C@H](NC(=O)[C@H](CCCCN)NC(=O)[C@@H](N)Cc1c[nH]cn1)C(=O)N[C@@H](CCC(N)=O)C(=O)N[C@H](C(=O)N[C@@H](Cc1ccc(O)cc1)C(=O)N1CCC[C@H]1C(=O)N[C@@H](CCCNC(=N)N)C(=O)N[C@H](C(=O)N[C@H](C(=O)NCC(=O)N[C@@H](CO)C(=O)NCC(=O)N[C@H](C(=O)O)[C@@H](C)O)[C@@H](C)O)[C@@H](C)O)[C@@H](C)O` [DES-ASN26_SCT(17-31)] (H-HKLQTYPRTTGSGT-OH; N-terminus and C-terminus assumed), the “IC50, HLA DRB1*0101” value at HLA DRB1*0101 (unit not given) is on record as “no binding”. Also, at HLA DRB1*0301, the “IC50, HLA DRB1*0301” value is on record as “no binding”. Besides, the “IC50, HLA DRB1*0401” value on HLA DRB1*0401 is given as “no binding”. Besides, the “IC50, HLA DRB1*0901” value at HLA DRB1*0901 is on record as “no binding”. Also, the “binding affinity class, HLA DRB1*1101” value at HLA DRB1*1101 (setting [1]) is given as “negligible affinity”. Also, on HLA DRB1*1501 (setting [1]), the “binding affinity class, HLA DRB1*1501” value is “moderate affinity”.

For `CC(C)C[C@H](NC(=O)[C@H](CCC(=O)O)NC(=O)[C@H](CCC(N)=O)NC(=O)[C@@H](N)CO)C(=O)N[C@@H](Cc1c[nH]cn1)C(=O)N[C@@H](CCCCN)C(=O)N[C@@H](CC(C)C)C(=O)N[C@@H](CCC(N)=O)C(=O)N[C@@H](Cc1ccc(O)cc1)C(=O)N1CCC[C@H]1C(=O)N[C@@H](CCCNC(=N)N)C(=O)N[C@H](C(=O)N[C@@H](CC(N)=O)C(=O)N[C@H](C(=O)NCC(=O)N[C@@H](CO)C(=O)NCC(=O)N[C@H](C(=O)O)[C@@H](C)O)[C@@H](C)O)[C@@H](C)O` [DES-THR21_SCT(13-27)] (H-SQELHKLQYPRTNTGSGT-OH; N-terminus and C-terminus assumed), the “IC50, HLA DRB1*0301” value on HLA DRB1*0301 was “did not bind”. At HLA DRB1*0401, the “IC50, HLA DRB1*0401” value is “did not bind”. Also, at HLA DRB1*1301 (unit not given), the “IC50, HLA DRB1*1301” value was “did not bind”.
